Reference: US20260109721A1, “IONIZABLE CATIONIC LIPIDS INCORPORATING SILICON: SYNTHESIS AND LNP FORMULATION” (priority 2023, published 2026)
Where two headings read alike, the source gives them in different places.

Key:
HepG2 cell line = test: In vitro toxicity study on HepG2 cell line (resazurin, viability and IC50); format: cell-based, human; details: for Viability (%) at different lipid concentrations, mean: HepG2 cells, 48 h post-treatment, relative to ethanol vehicle controls; for IC50: Homo sapiens, read-out: IC50 value, μM (on HepG2 cell)
How it was run: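 HepG2 cells (1000/well) were treated after overnight incubation with lipids at 6.25–800 μM for 48 h. Viability was read by resazurin fluorescence (530/580 nm) after 5 h at 37 °C, relative to ethanol vehicle controls. IC50 values came from concentration-response curves.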

[1] = Encapsulation efficiency of loaded LNPs, RiboGreen RNA assay (Method A); format: physicochemical; details: encapsulation efficiency of mRNA-loaded LNP, Method A, RiboGreen
Experimental: The synthesized lipids were tested in term of in vitro transfection efficacy and toxicity on HeLa cells. In order to perform the mentioned biological tests, appropriate LNPs had to be formulated from the synthesized lipids. The formulation technique was different in Method A and B. The particle size, polydispersity index (PDI) and zeta potential of resulting LNPs were determined by means of Dynamic Light Scattering technique (DLS). Prior to biological testing the encapsulation efficiency (EE) of the loaded LNPs was determined by using RiboGreen RNA assay. In case of Method A Luc mRNA while in case of Method B GFP mRNA was transfected into the cells. In parallel with the transfection experiments, toxicity of the investigated LNPs was determined, in case of Method A resazurin assay while in case of Method B MTT assay was used. Additionally, the toxicity of the lipids was investigated on HepG2 cells and IC50 values were determined.
• 1. Preparation of sample stock solutions: In the top row of the 96-well plate (Row A in the plate), add 297 μL of TE buffer pH 7.4 (see Table 1) to a single well for each sample plus a single well for a PBS blank using a multichannel pipette.
• 2. Add 3 μL of sample (at 0.5 mg/ml) to these wells for a final volume of 300 μL. Add 3 μL of PBS to the blank well. Pipette to mix. This is your stock solution for each sample. The final RNA concentration of these stock solutions should be approximately 4-7 μg/mL. • 3. mRNA-LNP sample setup: • a. Add 50 μL of TE buffer pH 7.5 to the two wells directly below each sample (Rows B and C in the plate). • b. Add 50 μL of sample stock solution from Row A into the wells in Rows B and C (this assay is run in duplicate. All liquid handling should be done using a multichannel pipette). • c. Add 50 μL of Triton buffer to the wells in Rows D and E (in the plate) below each sample. • d. Add 50 μL of sample stock solution from Row A into the wells in Rows D and E. • 4. RiboGreen RNA standard curve setup: Dilute the RNA standard to produce an RNA stock at a final concentration of 20 μg/mL in TE buffer pH 7.4. The final volume should be 150 μL. Set up a standard curve (in duplicate) as using the RNA stock (20 μg/mL siRNA), TE buffer pH 7.5, and Triton X-100 buffer according the Table 2 and Table 3 below.
• 5. Once samples and standard curve are plated, incubate the plate at 37° C. for 10 min to lyse mRNA-LNP in the presence of Triton X-100 buffer. • 6. Meanwhile, prepare RiboGreen Solution: Sum the total number of sample wells and standard curve wells. Add three to this number, and multiply the total by 100. This is the total volume, in μL, of RiboGreen Solution needed for this assay. In a 15 mL RNAse-free Falcon tube, dilute the RiboGreen Reagent 1:100 into TE buffer pH 7.5 to the total volume calculated. • 7. Addition of RiboGreen Solution and sample readings: Remove a 96-well plate from 37° C. incubator; let it cool to room temperature as RiboGreen binding is somewhat temperature dependent. Add 100 μL of RiboGreen Solution to each well. Pop any air bubbles with a needle. Read using fluorescent plate reader (excitation=480, emission=525). • 8. Sample analysis: Use the data generated by the RiboGreen standard curve to calculate the concentration of mRNA. Transfection Efficiency with Luciferase-mRNA (Method A)

[2] = lipid toxicity, HepG2, 48 h post-treatment, resazurin, 6.25-800 μM

| Structure (SMILES) | Viability (%) at different lipid concentrations, mean (HepG2 cell line; 6.25 μM lipid, resazurin) | Viability (%) at different lipid concentrations, mean (HepG2 cell line; 12.5 μM lipid, resazurin) | Viability (%) at different lipid concentrations, mean (HepG2 cell line; 25 μM lipid, resazurin) | Viability (%) at different lipid concentrations, mean (HepG2 cell line; 50 μM lipid, resazurin) | Viability (%) at different lipid concentrations, mean (HepG2 cell line; 100 μM lipid, resazurin) | Viability (%) at different lipid concentrations, mean (HepG2 cell line; 200 μM lipid, resazurin) | Viability (%) at different lipid concentrations, mean (HepG2 cell line; 400 μM lipid, resazurin) | Viability (%) at different lipid concentrations, mean (HepG2 cell line; 800 μM lipid, resazurin) | IC50 (HepG2 cell line; [2]) | EE (%) [1] | IC50 (HepG2 cell line; HepG2, 48 h) |
| --- | --- | --- | --- | --- | --- | --- | --- | --- | --- | --- | --- |
| CCCCC/C=C\C/C=C\CCCCCCCCOC(CC[C@@H](C)C1CCC2C3CCC4C[C@H](OC)CC[C@]4(C)C3CC[C@@]21C)O[Si](C)(C)OCCCCCCN(CCO)CCO (stereo partly drawn) [Example 52, (23Z,26Z)-3-(2-hydroxyethyl)-13-((3R)-3-((3R,10S,13R)-3-methoxy-10,13-dimethylhexadecahydro-1H-cyclopenta[a]phenanthren-17-yl)butyl)-11,11-dimethyl-10,12,14-trioxa-3-aza-11-siladotriaconta-23,26-dien-1-ol] | 101.2% | 101.1% | 104.2% | 120.8% | 112.2% | 76.7% | 5.3% | −0.7% | 233 µM | 86% |  |
| CCCCC/C=C\C/C=C\CCCCCCCCOC(CCCCCCC/C=C\C/C=C\CCCCC)O[Si](C)(C)OCCCCCCN1CCOCC1 (centres unmarked) [Example 55, 4-((20Z,23Z)-10-((8Z,11Z)-heptadeca-8,11-dien-1-yl)-8,8-dimethyl-7,9,11-trioxa-8-silanonacosa-20,23-dien-1-yl)morpholine] | 91.7% | 90.4% | 92.4% | 90.9% | 94.1% | 90.7% | 7.9% | 1.9% | 316 µM | 21% |  |
| CCCCC/C=C\C/C=C\CCCCCCCCOC(CCCCCCC/C=C\C/C=C\CCCCC)O[Si](C)(C)OCCCCCCN(C)CCO (centres unmarked) [Example 56, (23Z,26Z)-13-((8Z,11Z)-heptadeca-8,11-dien-1-yl)-3,11,11-trimethyl-10,12,14-trioxa-3-aza-11-siladotriaconta-23,26-dien-1-ol] | 96.7% | 94.6% | 96.5% | 94.8% | 99.7% | 100.1% | 89.5% | 36.9% | 714 µM | 85% |  |
| CCCCC/C=C\C/C=C\CCCCCCCCOC(CCCCCCC/C=C\C/C=C\CCCCC)O[Si](C)(C)OCCCCCCN1CCCCC1 (centres unmarked) [Example 57, 1-((20Z,23Z)-10-((8Z,11Z)-heptadeca-8,11-dien-1-yl)-8,8-dimethyl-7,9,11-trioxa-8-silanonacosa-20,23-dien-1-yl)piperidine] | 97.2% | 93.7% | 93.2% | 94.3% | 90.5% | 86.9% | 47.6% | 4.6% |  | 87% | 401 µM |
| CCCCC/C=C\C/C=C\CCCCCCCCOC(CCCCCCC/C=C\C/C=C\CCCCC)O[Si](C)(C)OCCCCCCN1CCN(CCO)CC1 (centres unmarked) [Example 58, 2-(4-((20Z,23Z)-10-((8Z,11Z)-heptadeca-8,11-dien-1-yl)-8,8-dimethyl-7,9,11-trioxa-8-silanonacosa-20,23-dien-1-yl)piperazin-1-yl)ethan-1-ol] | 104.2% | 97.0% | 102.1% | 101.2% | 104.1% | 101.6% | 40.3% | 3.8% | 375 µM | 86% |  |
| CCCCC/C=C\C/C=C\CCCCCCCCOC(CCCCCCC/C=C\C/C=C\CCCCC)O[Si](C)(C)OCCCCCCN(C)CC(O)CO (centres unmarked) [Example 59, (24Z,27Z)-14-((8Z,11Z)-heptadeca-8,11-dien-1-yl)-4,12,12-trimethyl-11,13,15-trioxa-4-aza-12-silatritriaconta-24,27-diene-1,2-diol] | 97.3% | 100.1% | 112.6% | 112.9% | 76.9% | 29.0% | 18.1% | 8.3% | 149 µM | 88% |  |
| CCCCC/C=C\C/C=C\CCCCCCCCOC(CCCCCCC/C=C\C/C=C\CCCCC)O[Si](C)(C)OCCCCCCN(C)CCCCO (centres unmarked) [Example 60, (25Z,28Z)-15-((8Z,11Z)-heptadeca-8,11-dien-1-yl)-5,13,13-trimethyl-12,14,16-trioxa-5-aza-13-silatetratriaconta-25,28-dien-1-ol] | 100.0% | 99.3% | 98.4% | 107.2% | 117.1% | 101.1% | 73.6% | 35.2% | 310 µM | 84% |  |
| CCCCC/C=C\C/C=C\CCCCCCCCOC(CCCCCCC/C=C\C/C=C\CCCCC)O[Si](C)(C)OCCCCCCN(CCCCO)CCCCO (centres unmarked) [Example 62, (25Z,28Z)-15-((8Z,11Z)-heptadeca-8,11-dien-1-yl)-5-(4-hydroxybutyl)-13,13-dimethyl-12,14,16-trioxa-5-aza-13-silatetratriaconta-25,28-dien-1-ol] | 100.4% | 110.2% | 122.5% | 116.9% | 68.2% | 13.2% | −0.6% | −0.7% | 113 µM | 84% |  |
